The values below are quoted from earlier work in patent US20040170686A1, “Suspension vehicle for coated drug particles” (priority 2003, published 2004).

The subject of the data set is gram-positive organisms. Conditions: gram-positive organisms incl. Staphylococcus, Streptococcus, Enterococcus, Bacillus, Corynebacterium.

`CC(=O)NC[C@H]1CN(c2ccc(N3CCOCC3)c(F)c2)C(=O)O1` [Linezolid, linezolid]: the antibacterial activity entry is listed as “strong antibacterial activity”.
